Laboratory results: PMC5803267, “A small molecule inhibitor of Rheb selectively targets mTORC1 signaling” (Nature Communications, 2018)

How the values were obtained:
Assay type in all cases: cell-based, human
[1] = system: T389pS6K1 (mTORC1 activity) in MCF-7 cells; experiment: T389pS6K1 AlphaLISA assay in MCF-7 cells
Description: (§1) We next evaluated the activity of NR1 in cell culture. Selective inhibition of mTORC1 in cells produces a specific signaling signature characterized by a reduction in phosphorylation of the mTORC1 substrates S6K1 and 4E-BP1 and increase in phosphorylation of AKT, catalyzed by mTORC2. This distinctive profile reflects the relief of a feedback loop where active S6K1 directly phosphorylates IRS1, resulting in the degradation of IRS1 and subsequent reduction of growth factor signaling from RTKs to downstream effectors such as AKT[1]. Conversely, reduction in ^T389pS6K1 is expected to lead to an increase in ^S473pAKT levels. We used AlphaLISA assays to detect ^T389pS6K1 and ^S473pAKT in MCF-7 cells. […]
(§2) Evaluation of NR1 in MCF-7 under replete conditions. […] The indicated phosphoproteins were detected using AlphaLISA assays for T389pS6K1 (reflecting mTORC1 activity) and S473pAKT (reflecting mTORC2 activity). […]
(§3) The compounds were added to the kinase reaction mixture by Acoustic technology (Echo550; nanoliter range) and incubated for 20 min at room temperature before the addition of 100 µM 33P-ATP. The reaction was incubated for 2 h at room temperature, and kinase activity was detected by a P81 filter- […]
(§4) AlphaLISA assays. […] The AlphaLISA protocol was performed in 384-well plates as instructed by Perkin Elmer, and the plates were read on an EnVision plate reader. […]

[2] = system: S473pAKT (mTORC2 activity) in MCF-7 cells; experiment: S473pAKT AlphaLISA assay in MCF-7 cells; conditions: MCF-7, replete conditions, 120 min, dose-dependent
Description: as §1, §2, §3, §4

[3] = system: S473pAKT (mTORC2) in PC3 cells; experiment: Chronic treatment of PC3 cells, S473pAKT Western blot
Procedure: MCF-7 cells were serum-starved for 16 h and treated with compound for 90 min before cell lysis and Western blot analysis. For insulin-stimulated cells, 100 nM insulin was added 30 min before cell lysis. For EGF-stimulated cells, 100 ng mL^−1 EGF was added 10 min before cell lysis. c Rap1 activity was detected in lysates loaded in vitro with either GDP or GTPγS and treated with NR1 at the indicated concentrations. This was followed by a subsequent pulldown of GST-RalGDS-RBD. Bound Rap1 was detected by Western blot. d Evaluation of NR1 in a LAM patient-derived cell line (TRI102) under replete and serum-starved conditions. For replete conditions, TRI102 cells were treated for 90 min with compound in DMEM + 10% FBS. For serum-starved conditions, TRI102 cells were serum-starved 16 h and then treated for 90 min with compound prior to cell lysis and Western blot analysis. e HEK293 cells co-transfected with the indicated mTOR constructs and HA-GST-S6K1 were starved of amino acids or treated with NR1. To assess mTORC1 activity, an HA IP was performed and Western blots probed for ^T389pS6K1. f Chronic treatment of PC3 cells with NR1 to evaluate the inhibition of mTORC1 (using ^T389pS6K1) versus mTORC2 (using ^S473pAKT). PC3 cells were treated with compound under replete conditions for 24 h prior to cell lysis and Western blot analysis.
Accordingly, a hallmark of a selective mTORC1 inhibitor such as NR1 would be the lack of mTORC2 inhibition irrespective of the duration of treatment. PC3 cells are sensitive to mTORC2 inhibition with long-term rapamycin treatment. Indeed, upon treatment with rapamycin for 24 h, both ^T389pS6K1 and ^S473pAKT were lowered, indicating inhibitory effects on both mTORC1 and mTORC2, respectively.
For Western-based signaling assays, cells were treated for either 90 min or 2–24 h as indicated before lysis, normalization, and Western analysis. Cells were lysed in Triton lysis buffer: 1% Triton X-100, 50 mM HEPES pH 7.4, 100 mM NaCl, 2 mM EDTA, 10 mM β-glycerophosphate, 10 mM Na-pyrophosphate, protease inhibitor.

Jurkat cells = experiment: Cell size assay in Jurkat cells (forward scatter, flow cytometry); conditions: 48 h incubation, dose-dependent
Procedure: Based on the dependence of cell size on mTORC1 activity, we assessed the effect of NR1 on the size of Jurkat cells, a human T cell line grown in suspension and responsive to mTORC1 inhibition.
Data are plotted as percent decrease in forward scatter. […] Error bars represent standard deviation of the mean of duplicates; graph represents data from one of two separate experiments
For the cell size assay, Jurkat Clone E-61 cells were plated in 96-well plates concurrent with compound. The cells were incubated at 37 °C and 5% CO2 for 48 h. PI stain (Invitrogen #727949) was added at a final concentration of 1 µg mL^−1, and cells were incubated for 15 min at room temperature. FACS analysis was performed; at least 10,000 events were collected for each sample. Viable cells (PI minus) were counted for FSC and SSC, and cell size (as measured by FSC) relative to the DMSO control was calculated.

How did the IC50 ([1]; Homo sapiens, MCF7, inhibition of S6K phosphorylation in cells, read-out: potency in cellular assays) turn out when CN(C)C(=O)c1ccc(Cn2c(C(=O)O)cc3c(Br)cc(Sc4ccc(Cl)c(Cl)c4)cc32)cc1 [NR1, 4-bromo-6-(3,4-dichlorophenylthio)-1-(4-(dimethylcarbamoyl)benzyl)-1H-indole-2-carboxylic acid] was run?
The IC50 was 2 µM.

And the “phosphorylation of T389pS6K1” value ([1]; MCF-7, replete conditions, 120 min, dose-dependent)?
The value was “inhibited the phosphorylation”.

And the “phosphorylation of S473pAKT” value [2]?
Its value is “increased the phosphorylation”.

What about the “S473pAKT after 24 h treatment” value ([3]; PC3, replete, 24 h, NR1 30 µM, rapamycin 100 nM) of the same compound?
Its value is “no inhibition”.

What about the “pAkt over time course” value ([3]; PC3, time points 2 h through 24 h) of the same compound?
The value was “activates pAkt”.

What about the “size of Jurkat cells” value (Jurkat cells) of the same compound?
Its value is “effectively reduced the size”.
